Reference: ChEMBL document CHEMBL1155519, “Discovery of N-phenyl-4-(thiazol-5-yl)pyrimidin-2-amine aurora kinase inhibitors” (J Med Chem, 2010)
Calls of active or inactive are those of the source. The calls are words filed in the database; no cut-off is given here.

How the values were obtained:
MV4-11 = test: Cytotoxicity against human MV4-11 cells after 96 hrs by MTT assay; format: functional, cell-based; conditions: MV4-11, 96 h
A549 [1] = test: Cell cycle arrest in asynchronous human A549 cells assessed as accumulation of cyclin B1-negative tetraploid cells at G1 phase at 0.5 to 2 uM after 24 hrs by FACS analysis; format: functional, cell-based
Aurora kinase B = Aurora kinase B (Homo sapiens, UniProt Q96GD4); conditions: A549, 0.15 to 5 uM
Description: Inhibition of Aurora B phosphorylation in human A549 cells at 0.15 to 5 uM after 1 hr by Western blot analysis in presence of nocodazole and proteasome inhibitor MG132

Liver microsomes = test: Intrinsic clearance in rat liver microsomes by LC/MS/MS analysis; format: ADME, Microsome
CYP1A2 = test: In vitro elimination half life at 5 uM in presence of human recombinant CYP1A2; format: ADME; conditions: read-out: beta t1/2
A549 [2] = test: Effect on mitotic index in asynchronous human A549 cells assessed as appearance of misaligned chromosomes with shortened spindle fibres at 0.5 uM after 8 hrs […]; format: functional, cell-based
MCF7 = test: Cytotoxicity against human MCF7 cells after 96 hrs by MTT assay; format: functional, cell-based; conditions: MCF7, 96 h
Mus musculus [3] = test: Toxicity in athymic mouse xenografted with human NCI-H460 cells assessed as body weight loss at 75 mg/kg, po administered QD on day 1 after implantation for 5 days measured on day 13; format: organism-based; set-up: dose 75 mg/kg, route oral; conditions: in vivo, 120 h
Mus musculus [4] = test: Toxicity in athymic mouse xenografted with human NCI-H460 cells assessed as body weight loss at 100 mg/kg, po administered QD on day 1 after implantation for 5 days measured on day 13; format: organism-based; set-up: dose 100 mg/kg, route oral; conditions: in vivo, 120 h
Cytochrome P450 3A4 = Cytochrome P450 3A4 (Homo sapiens, UniProt P08684); test: Inhibition of human recombinant CYP3A4 at 5 uM; format: ADME; conditions: recombinant enzyme
SW-620 [5] = test: Induction of apoptosis in human SW620 cells assessed as late apoptotic cells at 1 uM after 24 hrs by TUNEL assay; format: functional
[6] = target: Mitogen-activated protein kinase 14 (Homo sapiens, UniProt Q16539); test: Inhibition of SAPK2A
[7] = Cmax in Wistar rat at 10 mg/kg, po after 24 hrs by LC/MS/MS analysis; format: ADME, organism-based; set-up: dose 10 mg/kg, route oral; conditions: in vivo
HeLa = test: Inhibition of Aurora kinase in human HeLa cells assessed as complete inhibition of histone H3 phosphorylation at 1.25 uM after 7 hrs by Western blot analysis; format: cell-based
SW-620 [8] = test: Induction of apoptosis in human SW620 cells assessed as early apoptotic cells at 1 uM after 24 hrs by TUNEL assay; format: functional
[9] = Elimination half life in Wistar rat at 10 mg/kg, po by LC/MS/MS analysis; format: ADME, organism-based; set-up: dose 10 mg/kg, route oral; conditions: in vivo, read-out: beta t1/2 (converted)
[10] = Apparent volume of distribution with respect to the bioavailability in Wistar rat at 10 mg/kg, po after 24 hrs by LC/MS/MS analysis; format: ADME, organism-based; conditions: in vivo, read-out: Vc/F
U2OS [11] = test: Inhibition of Aurora kinase in asynchronous human U2OS cells assessed as reduction of histone H3 serine-10 phosphorylation at 150 nM after 7 hrs immunofluorescence microscopy; format: cell-based
[12] = Half life in rat liver microsomes by LC/MS/MS analysis; format: ADME, Microsome
Cytochrome P450 2C19 = Cytochrome P450 2C19 (Homo sapiens, UniProt P33261); test: Inhibition of human recombinant CYP2C19 at 5 uM; format: ADME; conditions: recombinant enzyme
U2OS [13] = test: Inhibition of Aurora kinase in nocodazole-synchronized human U2OS cells assessed as reduction of histone H3 serine-10 phosphorylation at 0.07 to 10 uM after 2 hrs immunofluorescence microscopy; format: cell-based
[14] = Antitumor activity against mouse P388D1 cells xenografted in BALB/c mouse assessed as increase in life span at 67 mg/kg, po administered BID on days 1-3 and 7-9 after tumor implantation relative to control
CCRF-CEM = test: Cytotoxicity against human CCRF-CEM cells after 96 hrs by MTT assay; format: functional, cell-based
[15] = Inhibition of CK2
NCI-H460 = test: Antitumor activity against human NCI-H460 cells xenografted in athymic mouse assessed as reduction in mean tumor volume at 100 mg/kg, po administered QD on day 1 after implantation for 5 days measured on day 9 relative to control; format: functional; set-up: scale not given: the % may be the effect or the level left

Chain of Aurora kinase B (Q96GD4 whole entry): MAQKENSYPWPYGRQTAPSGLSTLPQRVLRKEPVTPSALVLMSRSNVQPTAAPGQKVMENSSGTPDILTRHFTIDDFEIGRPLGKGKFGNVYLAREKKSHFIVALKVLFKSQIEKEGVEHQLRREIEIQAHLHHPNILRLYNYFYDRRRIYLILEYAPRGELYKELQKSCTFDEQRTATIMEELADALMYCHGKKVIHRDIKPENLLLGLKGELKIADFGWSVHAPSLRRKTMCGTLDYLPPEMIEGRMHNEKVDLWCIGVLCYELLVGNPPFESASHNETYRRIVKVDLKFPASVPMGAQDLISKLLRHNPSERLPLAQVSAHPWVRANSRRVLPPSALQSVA
Chain of Cytochrome P450 3A4 (P08684 whole entry): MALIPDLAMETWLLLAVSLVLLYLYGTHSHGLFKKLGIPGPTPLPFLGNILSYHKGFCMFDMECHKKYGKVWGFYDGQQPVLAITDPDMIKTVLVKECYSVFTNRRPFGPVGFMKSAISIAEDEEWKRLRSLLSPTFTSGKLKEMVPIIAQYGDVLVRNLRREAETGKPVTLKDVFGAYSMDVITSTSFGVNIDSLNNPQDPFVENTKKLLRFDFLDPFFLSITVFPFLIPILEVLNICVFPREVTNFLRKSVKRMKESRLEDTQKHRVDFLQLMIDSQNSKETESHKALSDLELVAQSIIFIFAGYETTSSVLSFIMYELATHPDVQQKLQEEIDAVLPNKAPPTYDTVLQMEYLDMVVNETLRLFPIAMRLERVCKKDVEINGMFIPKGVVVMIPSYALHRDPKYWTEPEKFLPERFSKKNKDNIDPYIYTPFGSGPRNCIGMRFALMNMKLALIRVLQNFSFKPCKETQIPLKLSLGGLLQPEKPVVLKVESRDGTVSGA
Chain of Mitogen-activated protein kinase 14 (Q16539 whole entry): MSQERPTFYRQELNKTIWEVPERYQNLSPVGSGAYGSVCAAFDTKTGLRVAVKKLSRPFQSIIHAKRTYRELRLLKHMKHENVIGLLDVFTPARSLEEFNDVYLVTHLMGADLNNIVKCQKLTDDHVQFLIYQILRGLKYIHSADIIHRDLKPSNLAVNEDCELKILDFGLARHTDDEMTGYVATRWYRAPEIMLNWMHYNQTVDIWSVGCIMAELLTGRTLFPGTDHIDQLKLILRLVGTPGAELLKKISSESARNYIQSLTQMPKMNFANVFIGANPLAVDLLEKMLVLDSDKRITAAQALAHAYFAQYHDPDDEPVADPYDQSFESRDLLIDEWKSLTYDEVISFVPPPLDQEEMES
Chain of Cytochrome P450 2C19 (P33261 whole entry): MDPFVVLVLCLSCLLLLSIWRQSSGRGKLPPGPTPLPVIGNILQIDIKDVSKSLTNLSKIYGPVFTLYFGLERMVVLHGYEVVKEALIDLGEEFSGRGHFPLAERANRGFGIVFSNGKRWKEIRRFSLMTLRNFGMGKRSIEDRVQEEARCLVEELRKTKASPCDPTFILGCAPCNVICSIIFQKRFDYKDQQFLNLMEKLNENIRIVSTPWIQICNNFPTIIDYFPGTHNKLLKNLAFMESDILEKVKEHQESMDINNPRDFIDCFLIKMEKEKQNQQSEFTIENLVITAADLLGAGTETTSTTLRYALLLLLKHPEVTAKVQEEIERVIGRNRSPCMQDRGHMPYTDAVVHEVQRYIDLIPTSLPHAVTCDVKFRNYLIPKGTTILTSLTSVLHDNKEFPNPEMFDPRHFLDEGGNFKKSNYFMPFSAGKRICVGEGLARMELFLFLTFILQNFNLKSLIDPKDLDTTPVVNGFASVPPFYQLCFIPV

In the case of `Cc1nc(N)sc1-c1ccnc(Nc2ccc(N3CCOCC3)cc2)n1` [CYC-116], the IC50 (MV4-11) is reported as 0.034 µM, the Activity (A549 [1]) is reported as “Active” and the inhibition (Aurora kinase B) is reported as “Active”. The clearance (Liver microsomes) was 42.3 µL/min/mg, the half-life at 5 µM (CYP1A2) was 1.2 h and the Activity (A549 [2]) was “Active”. The IC50 (MCF7) was 0.599 µM, the Activity (Mus musculus [3]) was “Non-toxic” and the Activity (Mus musculus [4]) was “Non-toxic”. For the same molecule, the “inhibition (INH)” value (Cytochrome P450 3A4) was “Active”, the Activity (SW-620 [5]) was 9.3% and the Ki [6] was over 10 µM. For the same molecule, the Cmax [7] was 3.9 µM, the inhibition (HeLa) was “Active” and the Activity (SW-620 [8]) was 91%. The half-life [9] was 3 h, the Vd/F [10] was 8.5 L/kg and the Activity (U2OS [11]) was “inactive”. The half-life [12] was 0.547 h, the “inhibition (INH)” value (Cytochrome P450 2C19) was “Active” and the inhibition (U2OS [13]) was “Active”. It also gave an Activity [14] of 183%, an IC50 (CCRF-CEM) of 0.471 µM and a Ki [15] of over 10 µM. The Activity (NCI-H460) was 19%.
